We go through one sequence from patent publication US9907838B2, “Composition and methods for treating ischemic damage” (GEMVAX & KAEL CO., LTD., priority 2013, dated 2018).

Assay [1] concerns renal ischemic-reperfusion injury mouse model. Briefly: Renal failure markers (BUN and creatine) in renal ischemic-reperfusion injury mouse model. It is filed as in vivo, C57BL/6 mouse. As to conditions: blood 24 hours after ischemic reperfusion; 1000 nmol/kg 30 minutes before and 12 hours after IR; compared to PBS control group. The procedure:
(§1) A renal ischemic-reperfusion injury mouse model was established by inducing ischemic reperfusion by bilaterally clamping renal pedicles for 30 minutes and restoring blood flow 30 minutes later by removing the clamps. Test groups were divided into an administered group (PEP 1), a control group (PBS without PEP 1), and a sham group (no bilateral clamping). PEP 1 was […] injected at a concentration of 1000 nmol/kg 30 minutes before and 12 hours after the induction of ischemic reperfusion.
(§2) C57BL/6 mouse (8 weeks old; Charles River Laboratories, Wilmington, Mass.) was used to induce renal ischemic-reperfusion injury. After blocking blood flow by clamping the renal pedicles with vascular forceps and inducing ischemia for […], reperfusion was performed.
The peptide PEP 1 was diluted in PBS to a concentration of 1000 nmol/kg and intraperitoneally (i.p.) injected twice 30 minutes before and 12 hours after the ischemic reperfusion. […]
Blood was taken 24 hours after the ischemic reperfusion and the levels of blood urea nitrogen (BUN) and creatine as renal toxicity markers were measured. […] Then, proteins were extracted and the levels of cytokines were measured. The concentrations of creatine and BUN were measured using an autoanalyzer (Technicon RA-1000; Bayer, Tarrytown, N.Y.).

Assay [2] deals with rat model of ischemic-reperfusion injury (abdominal skin flaps). In words: Flap survivability in rat skin flap model of ischemic-reperfusion injury. The assay is classed as in vivo, Sprague-Dawley rats. As to conditions: 7 days after induction of ischemic reperfusion; 10 mg/500 μL intramuscularly 30 minutes before and 1, 2, 3, 4, 5 and 7 days after; PBS-treated group 34.69%±16.44%; p<0.05. The procedure:
A rat model of ischemic-reperfusion injury was established by acquiring 5 cm×5 cm skin flaps from the abdomen of Sprague-Dawley rats (weighing 180-230 g), administering PEP1 or saline, inducing local ischemia through clamping and then restoring blood flow 7 hours later by removing the clamps (see FIG. 11).
Test groups were divided into an administered group (PEP 1), a control group (PBS without PEP 1), and a sham group (no ischemic-reperfusion injury induced). PEP 1 (10 mg/500 μL) or PBS (500 μL) was intramuscularly injected 30 minutes before and 1, 2, 3, 4, 5 and 7 days after the induction of ischemic reperfusion.
Flap survivability was measured 7 days after the induction of ischemic reperfusion. The flap survival rate was measured through analysis of digital images using the imageJ program.

For assay [3], the system named is renal ischemic-reperfusion injury mouse model. In words: Renal apoptosis by TUNEL staining in renal ischemic-reperfusion injury mouse model. The assay is classed as in vivo, C57BL/6 mouse. As to conditions: 24 hours after ischemic reperfusion; 1000 nmol/kg 30 minutes before and 12 hours after IR; compared to PBS control group. The procedure: as §1, §2
(§3) The peptide PEP 1 was diluted in PBS to a concentration of 1000 nmol/kg and intraperitoneally (i.p.) injected twice 30 minutes before and 12 hours after the ischemic reperfusion. The test was conducted for the administered group (PEP 1), the control group (PBS), and the sham group (no ischemic reperfusion).
Renal apoptosis was evaluated by staining renal tissue with TUNEL stain 24 hours after the ischemic reperfusion. Renal paraffin sections were stained with TUNEL using a TUNEL staining kit (Roche Applied Science, Indianapolis, Ind., USA).

The test system is the same in assay [4]. Briefly: Renal tissue injury scoring after PAS staining in renal ischemic-reperfusion injury mouse model. Conditions: 24 hours after ischemic reperfusion; 1000 nmol/kg 30 minutes before and 12 hours after IR; compared to PBS control group. It is filed as in vivo, C57BL/6 mouse. The procedure: as §1, §2, §3
Renal tissue was stained with periodic acid-Schiff (PAS) stain according to the protocol of the manufacturer (Polysciences, Inc., Warrington, Pa., USA) 24 hours after the ischemic reperfusion. After the staining, renal tissue injury was evaluated through renal tissue injury scoring.

Assay [5] has the same test system. Briefly: Inflammatory cytokine levels (IL-6, MCP-1, TNF-α) in renal tissue, renal ischemic-reperfusion injury mouse model. As to conditions: protein extracted from renal tissue 24 hours after ischemic reperfusion; 1000 nmol/kg twice; compared to PBS control group. The assay is classed as in vivo, C57BL/6 mouse. The procedure:
as §1, §2, §3
Blood was taken 24 hours after the ischemic reperfusion and the levels of blood urea nitrogen (BUN) and creatine as renal toxicity markers were measured. Renal tissue was taken and prepared into paraffin blocks for immunohistochemical and histological studies. Then, proteins were extracted and the levels of cytokines were measured. The concentrations of creatine and BUN were measured using an autoanalyzer (Technicon RA-1000; Bayer, Tarrytown, N.Y.).
Protein was extracted from renal tissue 24 hours after the ischemic reperfusion and the levels of IL-6, MCP-1 and TNF-α were measured according to the cytometric bead array method. Mouse IL-6, MCP-1, TNF-α ELISA kits were purchased from R&D Systems and the test was conducted according to the manufacturer's protocol.

The test system is the same in assay [6]. Briefly: Infiltration of innate immune cells (F4/80, Gr-1 staining) in renal tissue, renal ischemic-reperfusion injury mouse model. The assay is classed as in vivo, C57BL/6 mouse. Conditions: 24 hours after ischemic reperfusion; 1000 nmol/kg 30 minutes before and 12 hours after IR; compared to PBS control group. The procedure:
as §1, §2, §3
Infiltration of innate immune cells was evaluated by immnohistologically staining renal tissue with F4/80 (macrophage maker) and Gr-1 (neutrophil maker) 24 hours after the ischemic reperfusion. […]

In the case of “EARPALLTSRLRFIPK (listed as Homo sapiens) [PEP 1]”, in assay [1], the “blood urea nitrogen (BUN) level” value is on record as “significantly decreased” and the creatine level result was “significantly decreased”. The flap survival rate in assay [2] was 58.88%±11.44%. For the same sequence, the “TUNEL-positive cells in renal tissue” value in assay [3] is recorded as “remarkably decreased”. Moreover, the “renal tissue injury (renal tissue injury scoring, PAS stain)” value in assay [4] is listed as “remarkably decreased”. In assay [5], the “IL-6 level in renal tissue” value is given as “significantly decreased”, the “MCP-1 level in renal tissue” value is “significantly decreased” and the “TNF-α level in renal tissue” value is reported as “no significant difference”. Moreover, in assay [6], the “infiltration of macrophages (F4/80) into renal tissue” value was “remarkably decreased” and the “infiltration of neutrophils (Gr-1) into renal tissue” value is on record as “remarkably decreased”.
